Laboratory results as given in patent US20120035206A1, “PREPARATION AND APPLICATION OF NOVEL ANTIBACTERIAL AND ANTICANCER COMPOUNDS AND THEIR DERIVATIVES” (priority 2009, published 2012).
Converted amounts (≈) assume the structure as drawn.

Legend:
Assay type in all cases: cell-based
C. parapsilosis = test: In vitro antibacterial (antifungal) test, two-fold dilution MIC; conditions: Lodderomyces parapsilosis, RPMI 1640, culture 2-7 days
Protocol: (§1) In vitro antibacterial experiments of 25 compounds as anti-bacterial and anti-cancer compounds in the patent were tested using 14 kinds of bacteria. Tested bacteria: C. albicans, C. tropicalis, C. neoformans, E. floccosum, M. gypseum, A. niger, S. schenekn, C. parapsilosis, C. glabrata, C. Krusei, Trichoderma, Gibberella, Setrosphaeria turcica, Fusarium Oxysporum Vasinfectum. (Bacteria were from the Dermatology Hospital of Chinese Academy of Medical Sciences, Nanjing, China.)
(§2) The Preparation of tested Bacteria solution was following: incubated Bacteria were added to 5 ml physiological saline, and then they were mashed and placed with ultrasound. The solution was fully mixed, and insoluble substances were removed. The treated solution was called the original bacterium solution. In the test, the bacteria concentration in the original bacterium solution was adjusted to […].
(§3) Tested Methods: the tested compounds were dissolved in dimethyl sulfoxide. and the solution was diluted with sterile distilled water. And the distilled solution was added to sterilized RPMI 1640 medium. The concentration of the compounds were adjusted to 256, 128, 64, 32, 16, 8, 4, 2, 1, 0.5, 0.25, 0.125 ug*ml-1. Then the adjusted solutions were inoculated with tested bacteria, and the tested systems were placed in the constant temperature oven to culture for 2-7 days. The concentration at which there was no growing of fungi was taken as the minimum inhibitory concentration (MIC).

C. neoformans = test: as above; conditions: Cryptococcus neoformans, RPMI 1640, culture 2-7 days
Protocol: as §1, §2, §3

Terchoderma = test: as above; conditions: Trichoderma, RPMI 1640, culture 2-7 days
Protocol: as §1, §2, §3

C. Krusei = test: as above; conditions: Pichia kudriavzevii, RPMI 1640, culture 2-7 days
Protocol: as §1, §2, §3

S. schenekn = test: as above; conditions: RPMI 1640, culture 2-7 days
Protocol: as §1, §2, §3

Setosphaeria turcica = test: as above; conditions: Exserohilum turcicum, RPMI 1640, culture 2-7 days
Protocol: as §1, §2, §3

C. albicans = test: as above; conditions: Candida albicans, read-out: MIC C. albicas
Protocol: as §1, §2, §3

[1] = test system: Fusarium oxysporum vasinfectum; test: as above; conditions: RPMI 1640, culture 2-7 days
Protocol: as §1, §2, §3

C. tropicalis = test: as above; conditions: Candida tropicalis, RPMI 1640, culture 2-7 days
Protocol: as §1, §2, §3

M. gypseum = test: as above; conditions: Nannizzia gypsea, RPMI 1640, culture 2-7 days
Protocol: as §1, §2, §3

C. glabrata = test: as above; conditions: Nakaseomyces glabratus, RPMI 1640, culture 2-7 days
Protocol: as §1, §2, §3

E. floccosum = test: as above; conditions: Epidermophyton floccosum, RPMI 1640, culture 2-7 days
Protocol: as §1, §2, §3

FTC 133 = test: In vitro anticancer MTT experiment; conditions: Homo sapiens, concentration 5 ug/ml, 48 h or 72 h, read-out: inhibition ratio FTC 133
Protocol: (§4) In vitro anticancer experiments of 25 compounds as anti-bacterial and anti-cancer compounds in the patent were tested. In the test, 14 kinds of cancer cells were used as tested cancer cells. And the results obtained by MTT method were shown in table 2 (the inhibition ratio was obtained when the concentration was 5 ug/ml). Tested Cancer Cells: SGC7901, HTB-38HT-29, CRL-2233NU-398, CRL-1469PANC-1, B0192, HTB-131MDA-453, CRL-1435PC-3, FTC133, AS24391, HTB-95637. (Cancer cells were from Chinese Military Academy of Medical Sciences). Cells Culture: Culture solution was composed of RPMI 1640 medium, 10% (VAT) Fetal calf serum and 0.01% L-glutamine. Cultured cells were maintained at 37° C. in an incubator with 5% CO2. The cells at logarithmic growth phase were used in the experiment. MTT Experiment: Single cell suspension was obtained by digesting cells with 0.25% trypsin. The cells at logarithmic growth phase were collected and seeded in a 96-well plate at a concentration of 6000-7000 cells per well. After culturing for 12 h at 37° C. in the incubator with 5% CO2, the cells were again incubated with the tested compounds of various concentrations for 48 h or 72 h. Pure cultures and cells without drug were taken as blank reference and negative reference, and 8 Wells of each group were taken. Twenty microliter of MTT (5 mg/mL) was added to each well, and the mixed solutions were incubation for 4 h. The formazan product was dissolved by dimethyl sulfoxide (DMSO, 150 μL), and the optical density (O.D.) was read at 570 nm. The Inhibition Ratio was calculated by the following formula: Inhibition Ratio=(Anegative control−Asample)/(Anegative control−Ablank control)

CRL-1435PC-3 = test: In vitro anticancer MTT experiment; conditions: concentration 5 ug/ml, 48 h or 72 h, read-out: inhibition ratio CRL-1435PC-3
Protocol: as §4

HTB-131MDA-MB-453 = test: In vitro anticancer MTT experiment; conditions: concentration 5 ug/ml, 48 h or 72 h, read-out: inhibition ratio HTB-131MDA-MB-453
Protocol: as §4

L428 = test: In vitro anticancer MTT experiment; conditions: Homo sapiens, L-428, concentration 5 ug/ml, 48 h or 72 h, read-out: inhibition ratio L428
Protocol: as §4

HTB-95637 = test: In vitro anticancer MTT experiment; conditions: concentration 5 ug/ml, 48 h or 72 h, read-out: inhibition ratio HTB-95637
Protocol: as §4

SGC7901 = test: In vitro anticancer MTT experiment; conditions: Homo sapiens, SGC-7901, concentration 5 ug/ml, 48 h or 72 h, read-out: inhibition ratio SGC7901
Protocol: as §4

HTB-38HT-29 = test: In vitro anticancer MTT experiment; conditions: concentration 5 ug/ml, 48 h or 72 h, read-out: inhibition ratio HTB-38HT-29
Protocol: as §4

AS24391 = test: In vitro anticancer MTT experiment; conditions: concentration 5 ug/ml, 48 h or 72 h, read-out: inhibition ratio AS24391
Protocol: as §4

B01092 = test: In vitro anticancer MTT experiment; conditions: concentration 5 ug/ml, 48 h or 72 h, read-out: inhibition ratio B01092
Protocol: as §4

A375 = test: In vitro anticancer MTT experiment; conditions: Homo sapiens, A-375, concentration 5 ug/ml, 48 h or 72 h, read-out: inhibition ratio A375
Protocol: as §4

CRL-1469PANC-1 = test: In vitro anticancer MTT experiment; conditions: concentration 5 ug/ml, 48 h or 72 h, read-out: inhibition ratio CRL-1469PANC-1
Protocol: as §4

CRL-2233SNU-398 = test: In vitro anticancer MTT experiment; conditions: concentration 5 ug/ml, 48 h or 72 h, read-out: inhibition ratio CRL-2233SNU-398
Protocol: as §4

HTB-94 = test: In vitro anticancer MTT experiment; conditions: concentration 5 ug/ml, 48 h or 72 h, read-out: inhibition ratio HTB-94
Protocol: as §4

L1210 = test: In vitro anticancer MTT experiment; conditions: Mus musculus, concentration 5 ug/ml, 48 h or 72 h, read-out: inhibition ratio L1210
Protocol: as §4

Row | Structure (SMILES) | MIC (C. parapsilosis) [µg/mL] | MIC (C. neoformans) [µg/mL] | MIC (Terchoderma) [µg/mL] | MIC (S. schenekn) [µg/mL] | MIC (C. albicans) [µg/mL] | MIC [1] [µg/mL] | MIC (C. tropicalis) [µg/mL] | MIC (M. gypseum) [µg/mL] | MIC (C. glabrata) [µg/mL] | MIC (E. floccosum) [µg/mL] | inhibition at 5 µg/mL (CRL-1435PC-3) [%] | inhibition at 5 µg/mL (HTB-131MDA-MB-453) [%] | inhibition at 5 µg/mL (HTB-95637) [%] | inhibition at 5 µg/mL (SGC7901) [%] | inhibition at 5 µg/mL (HTB-38HT-29) [%] | inhibition at 5 µg/mL (AS24391) [%] | inhibition at 5 µg/mL (B01092) [%] | inhibition at 5 µg/mL (CRL-1469PANC-1) [%] | inhibition at 5 µg/mL (CRL-2233SNU-398) [%] | inhibition at 5 µg/mL (HTB-94) [%] | other results
1 | O=C1/C(=C/Cl)CSc2ccc(Cl)cc21 [Compound 4, (Z)-6-chloro-3-(chloromethylene)thiochroman-4-one] | 2 (≈ 8.16 µM) | 4 (≈ 16.3 µM) | 16 (≈ 65.3 µM) | 4 (≈ 16.3 µM) | 4 (≈ 16.3 µM) | 32 (≈ 131 µM) | 8 (≈ 32.6 µM) | 16 (≈ 65.3 µM) | 16 (≈ 65.3 µM) | 2 (≈ 8.16 µM) | 54.2 | 57.6 | 52.8 | 60.8 | 67.3 | 46.2 | 56.7 | 68 | 75.5 | 68 | MIC (C. Krusei): 32 µg/mL (≈ 131 µM); MIC (Setosphaeria turcica): 8 µg/mL (≈ 32.6 µM); inhibition at 5 µg/mL (FTC 133): 46.5%; inhibition at 5 µg/mL (L428): 66.6%; inhibition at 5 µg/mL (A375): 50.4%; inhibition at 5 µg/mL (L1210): 82.3%
2 | Cc1cc2c(cc1F)SC/C(=C\Br)C2=O [Compound 9, (Z)-3-(bromomethylene)-7-fluoro-6-methylthiochroman-4-one] | 8 (≈ 27.9 µM) | 1 (≈ 3.48 µM) | 64 (≈ 223 µM) | 32 (≈ 111 µM) | 64 (≈ 223 µM) | 64 (≈ 223 µM) | 32 (≈ 111 µM) | 64 (≈ 223 µM) | 64 (≈ 223 µM) | 32 (≈ 111 µM) | 36 | 56.7 | 55.8 | 50.4 | 74.6 | 57 | 39.4 | 60.1 | 45.6 | 65.6 | MIC (C. Krusei): 4 µg/mL (≈ 13.9 µM); MIC (Setosphaeria turcica): 32 µg/mL (≈ 111 µM); inhibition at 5 µg/mL (L428): 50.1%; inhibition at 5 µg/mL (L1210): 89.5%
3 | O=C1/C(=C/Cl)CSc2ncccc21 [Compound 18, (Z)-3-(chloromethylene)-2H-thiopyrano[2,3-b]pyridin-4(3H)-one] | 8 (≈ 37.8 µM) | 4 (≈ 18.9 µM) | 16 (≈ 75.6 µM) | 4 (≈ 18.9 µM) | 8 (≈ 37.8 µM) | 16 (≈ 75.6 µM) | 16 (≈ 75.6 µM) | 32 (≈ 151 µM) | 16 (≈ 75.6 µM) | 32 (≈ 151 µM) | 41 | 77.1 | 56.4 | 47.5 | 63.5 | 63.5 | 67.7 | 56.4 | 46.6 | 49 | MIC (C. Krusei): 32 µg/mL (≈ 151 µM); MIC (Setosphaeria turcica): 8 µg/mL (≈ 37.8 µM); inhibition at 5 µg/mL (FTC 133): 55%; inhibition at 5 µg/mL (A375): 67.8%; inhibition at 5 µg/mL (L1210): 76.8%
4 | Cc1ccc2c(c1)C(Cl)/C(=C/Cl)CS2 (stereo not drawn) [Compound 28, (E)-4-chloro-3-(chloromethylene)-6-methylthiochroman] | 32 (≈ 131 µM) | 8 (≈ 32.6 µM) | 16 (≈ 65.3 µM) | 16 (≈ 65.3 µM) | 32 (≈ 131 µM) | 64 (≈ 261 µM) | 16 (≈ 65.3 µM) | 16 (≈ 65.3 µM) | 32 (≈ 131 µM) | 4 (≈ 16.3 µM) | 65.2 | 56.8 | 48.2 | 63.3 | 72.4 | 72.3 | 46.2 | 75.3 | 56.3 | 62.2 | inhibition at 5 µg/mL (FTC 133): 72.5%; inhibition at 5 µg/mL (L428): 66.7%; inhibition at 5 µg/mL (A375): 52.7%; inhibition at 5 µg/mL (L1210): 79.4%
